# Measured values reported in patent publication US7183260B2, “C-terminal modified oxamyl dipeptides as inhibitors of the ICE/ced-3 family of cysteine proteases” (Idun Pharmaceuticals, Inc., priority 1998, dated 2007).
# Like-named read-outs stand apart in the source and are kept apart here. Where a SMILES comes first, the peptide text is derived from it. The star is where a group is joined. Cbz = O=C(OCc1ccccc1)*; CH2F = FC*
# Assays:
# Assay type in all cases: biochemical
# mICE = target: T1, mICE (Mus musculus, UniProt P29452); assay: Dissociation constant Ki and irreversible rate constant k3 for irreversible inhibitors (ICE)
# T1 sequence (P29452 123-296 limits assumed): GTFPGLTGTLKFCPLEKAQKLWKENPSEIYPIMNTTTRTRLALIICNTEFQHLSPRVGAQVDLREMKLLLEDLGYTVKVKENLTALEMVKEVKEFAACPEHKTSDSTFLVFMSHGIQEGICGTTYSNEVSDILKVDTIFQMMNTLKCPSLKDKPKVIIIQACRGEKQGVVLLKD
# T1 sequence (P29452 315-402 limits assumed): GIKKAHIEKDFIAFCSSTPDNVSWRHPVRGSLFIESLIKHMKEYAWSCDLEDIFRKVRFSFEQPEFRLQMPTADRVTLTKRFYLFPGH
# MCH-5 = MCH-5 (Homo sapiens, UniProt Q14790); assay: Dissociation constant Ki and irreversible rate constant k3 for irreversible inhibitors (Mch5)
# CPP32 = target: T2, CPP32 (Homo sapiens, UniProt P42574); assay: Dissociation constant Ki and irreversible rate constant k3 for irreversible inhibitors (CPP32)
# T2 sequence (P42574 29-175 limits assumed): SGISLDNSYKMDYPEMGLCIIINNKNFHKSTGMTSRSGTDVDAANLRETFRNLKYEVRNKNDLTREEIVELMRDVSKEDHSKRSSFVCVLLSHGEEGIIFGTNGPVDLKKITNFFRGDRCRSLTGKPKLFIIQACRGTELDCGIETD
# T2 sequence (P42574 176-277 limits assumed): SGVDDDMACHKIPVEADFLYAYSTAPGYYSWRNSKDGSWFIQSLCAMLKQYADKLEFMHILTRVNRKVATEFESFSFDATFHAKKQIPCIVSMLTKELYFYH
# MCH-2 = target: T3, MCH-2 (Homo sapiens, UniProt P55212); assay: Dissociation constant Ki and irreversible rate constant k3 for irreversible inhibitors (Mch2)
# T3 sequence (P55212 24-179 limits assumed): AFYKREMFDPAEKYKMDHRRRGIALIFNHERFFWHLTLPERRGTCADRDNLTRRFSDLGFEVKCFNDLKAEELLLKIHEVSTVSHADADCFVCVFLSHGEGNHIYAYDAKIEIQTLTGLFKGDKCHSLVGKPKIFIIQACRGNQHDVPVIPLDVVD
# T3 sequence (P55212 194-293 limits assumed): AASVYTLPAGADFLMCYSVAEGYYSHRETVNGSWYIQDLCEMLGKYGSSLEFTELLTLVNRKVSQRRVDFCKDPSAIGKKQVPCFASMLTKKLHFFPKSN
# [1] = continuous assay 60 min, reaction initiated by adding enzyme to substrate-inhibitor mixture
# MCH-5, sequence (Q14790 217-374 limits assumed, species assumed): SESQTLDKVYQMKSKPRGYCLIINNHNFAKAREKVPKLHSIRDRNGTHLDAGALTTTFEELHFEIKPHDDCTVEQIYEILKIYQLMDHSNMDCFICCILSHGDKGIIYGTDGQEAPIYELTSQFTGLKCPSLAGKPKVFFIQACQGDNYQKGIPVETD
# MCH-5, sequence (Q14790 385-479 limits assumed, species assumed): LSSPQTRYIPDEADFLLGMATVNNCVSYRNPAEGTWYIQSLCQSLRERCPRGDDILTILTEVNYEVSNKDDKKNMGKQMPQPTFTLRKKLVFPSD
Structure (SMILES),Ki (mICE; [1]) [nM],mICE k3/Ki (mICE; [1]),Ki (MCH-5; [1]) [nM],MCH-5 k3/Ki (MCH-5; [1]),CPP32 k3/Ki (CPP32; [1]),Ki (CPP32; [1]) [nM],Ki (MCH-2; [1]) [nM],MCH-2 k3/Ki (MCH-2; [1]),Ki (mICE) [nM],mICE k3/Ki (mICE),Ki (MCH-5) [nM],MCH-5 k3/Ki (MCH-5),CPP32 k3/Ki (CPP32),Ki (CPP32) [nM],Ki (MCH-2) [nM],MCH-2 k3/Ki (MCH-2)
C[C@H](NC(=O)C(=O)NC1CCCCC1)C(=O)N[C@@H](CC(=O)O)C(=O)COC(=O)c1c(Cl)cccc1Cl [Example 55],6.1,"2,020,000 moles^−1 seconds^−1",2.6,"2,140,000 moles^−1 seconds^−1","1,174,000 moles^−1 seconds^−1",13,6.3,"655,000 moles^−1 seconds^−1",,,,,,,,
C[C@H](NC(=O)C(=O)Nc1cc(C(F)(F)F)ccc1N1CCOCC1)C(=O)N[C@@H](CC(=O)O)C(=O)COP(=O)(c1ccccc1)c1ccccc1 [Example 45],19,"369,000 moles^−1 seconds^−1",8,"441,000 moles^−1 seconds^−1","100,000 moles^−1 seconds^−1",112,19,"98,500 moles^−1 seconds^−1",,,,,,,,
CC(C)[C@H](NC(=O)C(=O)Nc1cccc2ccccc12)C(=O)N[C@@H](CC(=O)O)C(=O)COc1ccnc(C(F)(F)F)n1 [Example 12],7.2,,12,,,64,95,,,,,,,,,
"CC(C)[C@H](NC(=O)C(=O)Nc1cccc2ccccc12)C(=O)NC(CC(=O)O)C(=O)CF (mixture of isomers) [Example 3, (3RS)-3-[N-(N′-(1-NAPHTHYL)OXAMYL)VALINYL]AMINO-5-FLUORO-4-OXOPEINTANOIC ACID]",1.8,"2,170,000 moles^−1 seconds^−1",1.3,"1,160,000 moles^−1 seconds^−1","413,000 moles^−1 seconds^−1",32,17,"199,000 moles^−1 seconds^−1",,,,,,,,
CC(C)[C@H](NC(=O)C(=O)Nc1cccc2ccccc12)C(=O)N[C@@H](CC(=O)O)C(=O)COP(C)(=O)c1ccccc1 (stereo partly shown) [Example 10],6.5,,5.4,,,19,11,,,,,,,,,
CC(C)[C@H](NC(=O)C(=O)Nc1ccccc1)C(=O)N[C@@H](CC(=O)O)C(=O)COc1c(F)c(F)cc(F)c1F [Example 82],7,"1,490,000 moles^−1 seconds^−1",5,"598,000 moles^−1 seconds^−1","36,000 moles^−1 seconds^−1",389,100,"25,500 moles^−1 seconds^−1",,,,,,,,
CC(C)[C@H](NC(=O)C(=O)NCc1ccccc1)C(=O)N[C@@H](CC(=O)O)C(=O)COc1c(F)c(F)cc(F)c1F [Example 79],6,"1,800,000 moles^−1 seconds^−1",5,"472,000 moles^−1 seconds^−1","21,000 moles^−1 seconds^−1",405,125,"16,600 moles^−1 seconds^−1",,,,,,,,
C[C@H](NC(=O)C(=O)Nc1ccccc1C(C)(C)C)C(=O)N[C@@H](CC(=O)O)C(=O)COC(=O)c1c(Cl)cccc1Cl [Example 76],19,"537,000 moles^−1 seconds^−1",22,"30,200 moles^−1 seconds^−1","62,900 moles^−1 seconds^−1",85,235,"6,960 moles^−1 seconds^−1",,,,,,,,
"CC(NC(=O)C(NC(=O)OCc1ccccc1)C(C)C)C(=O)NC(CC(=O)O)C(=O)CF (stereo not drawn) [refer., Cbz-ValAlaAsp-CH2F, reference compound] (Cbz-Val-Ala-Asp-CH2F; configuration not given here)",15,"214,000 moles^−1 seconds^−1",18,"83,300 moles^−1 seconds^−1","12,200 moles^−1 seconds^−1",820,594,"2,950 moles^−1 seconds^−1",,,,,,,,
CC(C)[C@H](NC(=O)C(=O)NC(c1ccccc1)c1ccccc1)C(=O)N[C@@H](CC(=O)O)C(=O)COc1c(F)c(F)cc(F)c1F [Example 81],54,"201,000 moles^−1 seconds^−1",36,"48,600 moles^−1 seconds^−1","5,380 moles^−1 seconds^−1",882,1150,"1,430 moles^−1 seconds^−1",,,,,,,,
CC(C)[C@H](NC(=O)C(=O)Nc1ccncc1)C(=O)N[C@@H](CC(=O)O)C(=O)COc1c(F)c(F)cc(F)c1F [Example 101],22600,912 mol⁻¹ s⁻¹,1550,"1,140 moles^−1 seconds^−1",511 mol⁻¹ s⁻¹,26100,641,"5,580 moles^−1 seconds^−1",,,,,,,,
C[C@H](NC(=O)C(=O)Nc1cc(C(F)(F)F)ccc1N1CCCC1)C(=O)N[C@@H](CC(=O)O)C(=O)COP(=O)(c1ccccc1)c1ccccc1 [Example 46],5.3,"1,503,000 moles^−1 seconds^−1",4.4,"933,000 moles^−1 seconds^−1","78,600 moles^−1 seconds^−1",52,7.3,"202,000 moles^−1 seconds^−1",,,,,,,,
CC(C)[C@H](NC(=O)C(=O)Nc1cccc2ccccc12)C(=O)N[C@@H](CC(=O)O)C(=O)COc1cccc2ccccc12 [Example 18],33,"254,000 moles^−1 seconds^−1",10,"177,000 moles^−1 seconds^−1","180,000 moles^−1 seconds^−1",46,20,"83,700 moles^−1 seconds^−1",,,,,,,,
CC(C)[C@H](NC(=O)C(=O)Nc1ccccc1Cc1ccccc1)C(=O)N[C@@H](CC(=O)O)C(=O)COc1c(F)c(F)cc(F)c1F [Example 84],43,"344,000 moles^−1 seconds^−1",24,"105,000 moles^−1 seconds^−1","54,800 moles^−1 seconds^−1",367,82,"25,300 moles^−1 seconds^−1",,,,,,,,
C[C@H](NC(=O)C(=O)Nc1ccccc1I)C(=O)N[C@@H](CC(=O)O)C(=O)COC(=O)c1c(Cl)cccc1Cl [Example 38],152,"90,100 moles^−1 seconds^−1",6,"337,000 moles^−1 seconds^−1","942,000 moles^−1 seconds^−1",13,6,"360,000 moles^−1 seconds^−1",,,,,,,,
CC(C)[C@H](NC(=O)C(=O)Nc1ccc(F)cc1)C(=O)N[C@@H](CC(=O)O)C(=O)COc1c(F)c(F)cc(F)c1F [Example 91],16,"906,000 moles^−1 seconds^−1",15,"338,000 moles^−1 seconds^−1","36,300 moles^−1 seconds^−1",758,59,"121,000 moles^−1 seconds^−1",,,,,,,,
CC(C)[C@H](NC(=O)C(=O)Nc1cccc2ccccc12)C(=O)N[C@@H](CC(=O)O)C(=O)COc1c(-c2ccccc2)oc2ccccc2c1=O [Example 9],128,"82,100 moles^−1 seconds^−1",453,0 mol⁻¹ s⁻¹,"43,600 moles^−1 seconds^−1",59,336,,,,,,,,,
C[C@H](NC(=O)C(=O)NCc1ccccc1)C(=O)N[C@@H](CC(=O)O)C(=O)COC(=O)c1c(Cl)cccc1Cl [Example 52],340,"59,100 moles^−1 seconds^−1",62,"203,000 moles^−1 seconds^−1","600,000 moles^−1 seconds^−1",29,20,"244,000 moles^−1 seconds^−1",,,,,,,,
C[C@H](NC(=O)C(=O)NC12CC3CC(CC(C3)C1)C2)C(=O)N[C@@H](CC(=O)O)C(=O)COP(=O)(c1ccccc1)c1ccccc1 [Example 53],,,,,,,,,462,"27,600 moles^−1 seconds^−1",77,"50,400 moles^−1 seconds^−1","149,000 moles^−1 seconds^−1",134,42,"124,000 moles^−1 seconds^−1"
C[C@H](NC(=O)C(=O)Nc1ccccc1C(C)(C)C)C(=O)N[C@@H](CC(=O)O)C(=O)COP(=O)(c1ccccc1)c1ccccc1 [Example 32],98,"159,000 moles^−1 seconds^−1",10,"282,000 moles^−1 seconds^−1","327,000 moles^−1 seconds^−1",34,16,"275,000 moles^−1 seconds^−1",,,,,,,,
